Measured values taken from patent publication US10633351B2, “Halogenated compound and axially chiral isomer thereof” (MEDSHINE DISCOVERY INC., priority 2016, dated 2020).
pIC50: −log10 of the molar value. Like-named read-outs stand apart in the source and are kept apart here.

Columns and labels:
[1] = hepatocyte, dog; cited from earlier work
[2] = hepatocyte, rat; cited from earlier work
[3] = human, 0-144 h, after Lesinurad, cited from earlier work
[4] = Pharmacokinetics in SD rats after IV and PO administration; assay type: in vivo; details: rat; for C0: read-out: Starting concentration C0; for Cmax: read-out: Peak concentration Cmax; for MRT inf: read-out: Detention time MRT0-inf; for half-life: read-out: Half-life T1/2 (converted)
Description: Drug concentrations in plasma of (−)-WX001 and (+)-WX002 were measured by LC/MS/MS method at different times after SD rats as tested animals were administered (−)-WX001 and (+)-WX002 by IV (intravenous injection) and PO (gavage), and the pharmacokinetic behavior of the compound in the present invention in rats was investigated, and its pharmacokinetic characteristics were evaluated.
12 healthy adult male SD rats were divided into 4 groups (each compound contained IV and PO group), 3 rats per group. SD rats were purchased from Shanghai Slac Laboratory Animal CO.LTD, whose animal production license number was SCXK (Shanghai) 2012-0002.
The appropriate amount of the sample was weighed, added a certain amount of DMSO and ultrasonic dissolved, and then was added 20% hydroxypropyl-β-cyclodextrin solution to give tested compound which was 1 mg/mL 5% DMSO/95% 20% HPCD clear solution used for IV and PO administration.
12 SD rats were divided into 4 groups and there were 3 male rats in each group, and administrated by IV, PO, respectively after fasting overnight. The dose of IV was 2 mg/kg and administration volume was 2 mL/kg; the dose of PO was 10 mg/kg and administration volume was 10 mL/kg.
In group of IV, about 200 μL of blood was collected at 0.083, 0.25, 0.5, 1, 2, 4, 6, 8, 24 hour after administration, placed in an anticoagulant tube of K2-EDTA, centrifuged at 3000 rpm for 15 minutes, and then plasma was separated and stored at −80° C. In group of PO, blood was collected at 0.25, 0.5, 1, 2, 4, 6, 8, 24 hour after administration, and the other operations were the same as the group of IV. The plasma samples were pretreated through precipitated protein and the plasma concentration was determined by LC/MS/MS method. A linear range of the analytical method was 4.00-6000 nM.

[5] = Metabolite identification after 120 min incubation in human hepatocytes (LC-UV-MSn); assay type: in vitro ADME; details: for metabolites detected: human hepatocyte metabolism, same condition as (±)-Lesinurad; for Percentage of ultraviolet area: human hepatocytes, 10 μM, 120 min
Description: The purpose of this experiment was to confirm the metabolites of a series of compounds after incubation for 120 minutes in human hepatocytes using LC-UV-MS^n (n=1-2) detection. MS and MS^2 data were analyzed using MetaboLynx™ software after data collection.
Alter incubating the sample for 2 h, the protein was precipitated by using acetonitrile containing 01.% formic acid, centrifuged, and the supernatant was taken out and dried an under nitrogen, and dissolved and then injected for analysis.

URAT-1 = biological target: T1, URAT-1 (Homo sapiens, UniProt Q96S37); assay: Inhibition of 14C-labelled uric acid transport in MDCK cell line stably transfected with the URAT-1 gene; assay type: cell-based; details: for pIC50: MDCK cells stably transfected with URAT-1, 14C uric acid 50 uM, read-out: IC50 against URAT-1
T1 construct: expressed in transfected cells; host or cells: MDCK
T1 sequence (Q96S37 1-553): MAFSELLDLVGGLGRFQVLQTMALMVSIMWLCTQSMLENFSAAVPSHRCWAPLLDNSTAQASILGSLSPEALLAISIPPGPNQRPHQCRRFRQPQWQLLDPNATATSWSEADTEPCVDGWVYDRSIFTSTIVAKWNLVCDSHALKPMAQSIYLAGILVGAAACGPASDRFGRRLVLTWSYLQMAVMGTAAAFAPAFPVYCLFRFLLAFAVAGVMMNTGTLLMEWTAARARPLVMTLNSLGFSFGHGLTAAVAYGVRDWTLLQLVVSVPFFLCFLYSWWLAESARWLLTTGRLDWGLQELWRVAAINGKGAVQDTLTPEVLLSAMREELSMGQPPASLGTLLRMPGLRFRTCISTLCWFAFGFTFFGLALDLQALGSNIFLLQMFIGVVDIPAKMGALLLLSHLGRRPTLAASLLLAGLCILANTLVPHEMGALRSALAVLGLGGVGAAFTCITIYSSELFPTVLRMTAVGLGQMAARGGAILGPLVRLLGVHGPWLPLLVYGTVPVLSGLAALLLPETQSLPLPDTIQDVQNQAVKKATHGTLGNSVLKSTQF
Source text: The inventors examined the ability of these compounds to inhibit the transport of labeled uric acid by MDCK cell lines stably transfected with the human URAT1 gene.
Determination of the IC50 value of the inhibitory activity of the compound against uric acid reabsorption by the MDCK cell line stably transfected with the URAT-1 (uric acid transporter) gene.
URAT-1 (MDCK) cell line: the MDCK cell line stably transfected with the URAT-1 gene
Cell culture medium: MEM culture medium added 10% fetal bovine serum (FBS), 1% sodium pyruvate and 250 ug/ml G418.
4) cells were diluted to 2.5×10^5/mL with the culture medium, and the diluted cells were added into a rat tail collagen-coated 24-well plate (800 uL/well, 2×10^5 cells/well). The plate was incubated overnight at 37° C. in a 5% CO2 incubator.
1) cells were seeded into 24-well plate, and supernatant was discarded after 16-18 h. The cells were washed twice using 600 ul HBSS buffer.
2) HBSS buffer was removed and 180 ul of HBSS buffer was added into each well again.
1) powder of compounds was dissolved into 100% DMSO, and diluted into 6 concentration points by 3-fold dilution, or into 2 concentration points by 10-fold dilution, and the highest starting concentration was 50 mM.
2) 5 ul DMSO solution in step 1) was transferred into 120 ul of HBSS buffer to make a 25-fold dilution.
3) 10 ul diluted solution in step 2) was added into 24-well plate, and the plate was incubated for 15 min at 37° C. in a 5% CO2 incubator. The final concentration of DMSO was 0.2%. The control well contained 0.2% DMSO without compound.
^14C-labelled uric acid was diluted and added into plate, and the final concentration was 50 uM. The plate was incubated for 10 min at 37° C. in a 5% CO2 incubator. After supernatant was discarded, cells were washed with HBSS buffer twice. Cells was lysed with 0.1M NaOH. And then cell lysis solution was collected into liquid scintillation tube and added with liquid scintillation solution. The signal was read by liquid scintillation counter Tri-Carb.
URAT-1 inhibition by the treatment of the compounds was analyzed by calculating the percentage of inhibition according to […] data. Non-linear curve fitting analysis on the percent inhibition (inh %) data using GraphPad Prism software generate the IC50 value.

[6] = liver microsome, monkey; cited from earlier work
[7] = male, SD, plasma, iv, 2 mg/kg, IV 2 mpk
[8] = male, SD, plasma, po, 10 mg/kg, PO 10 mpk

## O=C(O)CSc1nnc(Br)n1-c1ccc(C2CC2)c2c1C=CC(O)C2O (centres unmarked) [Compound M4]
[1]
  amount of metabolite / parent found (Total 100): not detected
[2]
  amount of metabolite / parent found (Total 100): not detected
[3]; Feces
  Percentage of administered dose: 5.0%
[3]; Urine
  Percentage of administered dose: 15.7%

## O=C(O)CSc1nncn1-c1ccc(C2CC2)c2ccccc12 [Compound M2]
[3]; Feces
  Percentage of administered dose: 4.8%
[3]; Urine
  Percentage of administered dose: 0.3%

## O=C(O)CSc1nnc(Br)n1-c1c(Cl)cc(C2CC2)c2ccccc12 (single isomer, unassigned) [(+)-WX002]
[4]; IV 2 mpk, 2 mg/kg
  Area under curve AUC0-inf: 16.775 µM·h
  Clearance rate Cl: 4.56 mL/min/kg
  Detention time MRT0-inf: 3.58 h
  Half-life T1/2: 3.51 h
  apparent volume of distribution Vdss: 0.97 L/kg
  C0: 12.9 µM
[4]; PO 10 mpk
  Peak time Tmax: 1.67 h
[4]; PO 10 mpk, 10 mg/kg
  Area under curve AUC0-inf: 77.436 µM·h
  Bioavailability F: 76%
  Detention time MRT0-inf: 4.82 h
  Half-life T1/2: 2.68 h
  Cmax: 12 µM
[5]
  metabolites detected: no metabolites were detected
  Percentage of ultraviolet area: 100%
URAT-1
  pIC50: < 4.70
URAT-1; URAT1 MDCK cells
  inhibitory activity against URAT-1 compared with reference (±)-Lesinurad: significantly improved inhibitory activity

## O=C(O)CSc1nnc(Br)n1-c1c(Cl)cc(C2CC2)c2ccccc12 (racemic) [(±)-WX003]
URAT-1
  pIC50: 4.98

## O=C(O)CSc1nncn1-c1ccc(C2(O)CC2)c2ccccc12 [Compound M5]
[3]; Feces
  Percentage of administered dose: 3.6%

## O=C(O)CSc1nnc(Br)n1-c1c(Cl)cc(C2CC2)c2ccccc12 (single isomer, unassigned) [(−)-WX001]
[4]; male, SD, plasma, 10 mg/kg, PO 10 mpk, read-out: Peak time Tmax
  Tmax: 1.67 h
[4]; male, SD, plasma, iv, 2 mg/kg, IV 2 mpk, read-out: Area under curve AUC0-inf
  AUC(0-inf): 33 µM·h
[4]; male, SD, plasma, iv, 2 mg/kg, IV 2 mpk, read-out: Clearance rate Cl
  clearance: 2.31 mL/min/kg
[4]; [7]
  MRT inf: 4.4 h
  half-life: 2.86 h
  C0: 11.7 µM
[4]; male, SD, plasma, iv, 2 mg/kg, IV 2 mpk, read-out: apparent volume of distribution Vdss
  Vd: 0.61 L/kg
[4]; male, SD, plasma, po, 10 mg/kg, PO 10 mpk, read-out: Bioavailability F
  bioavailability: 94%
[4]; [8]
  MRT inf: 7.18 h
  half-life: 4.86 h
  Cmax: 20.6 µM
[4]; PO 10 mpk, 10 mg/kg
  Area under curve AUC0-inf: 154.895 µM·h
[5]
  metabolites detected: no metabolites were detected
  Percentage of ultraviolet area: 100%
URAT-1
  pIC50: 5.10
URAT-1; URAT1 MDCK cells
  fold inhibitory activity in vitro compared to the other isomer (+)-WX002: more than 3 fold
  inhibitory activity against URAT-1 compared with reference (±)-Lesinurad: significantly improved inhibitory activity

## O=C(O)CSc1nnc(Br)n1-c1ccc(C2(O)CC2)c2ccccc12 [Compound M3]
[1]
  amount of metabolite / parent found (Total 100): not detected
[2]
  amount of metabolite / parent found (Total 100): not detected
[3]; Feces
  Percentage of administered dose: 0.3%
[3]; Urine
  Percentage of administered dose: 12.0%
[6]
  amount of metabolite / parent found (Total 100): 7.9

## CC(C)(Sc1nnc(Br)n1-c1c(Cl)cc(C2CC2)c2ccccc12)C(=O)O (single isomer, unassigned) [(−)-WX004]
URAT-1
  pIC50: 5.96
URAT-1; URAT1 MDCK cells
  inhibitory activity against URAT-1 compared with reference (±)-Lesinurad: significantly improved inhibitory activity

## CC(C)(Sc1nnc(Br)n1-c1c(Cl)cc(C2CC2)c2ccccc12)C(=O)O (single isomer, unassigned) [(+)-WX005]
URAT-1
  pIC50: 5.85
URAT-1; URAT1 MDCK cells
  inhibitory activity against URAT-1 compared with reference (±)-Lesinurad: significantly improved inhibitory activity
